# Test results reported in patent publication US6583177B2, “Leukotriene B4 antagonist compounds and method for treatment” (Ono Pharmaceutical Co., Ltd., priority 1994, dated 2003).
# pIC50: −log10 of the molar value. Read-outs that look alike come from different tables or passages of the source.
# Tests used:
# LTB4 receptor = biological target: T1, LTB4 receptor (Homo sapiens, UniProt Q15722); test: Binding inhibition against 3H-LTB4 on the human polymorphonuclear leukocyte (PMN); conditions: percentage of inhibition of specific 3H-LTB4 (4nM) binding to human PMN, 0° C. for 20 min
# T1 construct: The reaction was started by addition of a thoroughly mixed PMN cell suspension (1.6×10^6 cells); endogenous in cells; host or cells: human polymorphonuclear leukocytes (PMN), whole-cell suspension
# Procedure: Binding Inhibition Against ^3H-LTB4 on the Human Polymorphonuclear Leukocyte (PMN)
# 0.049 ml Hanks balanced salt solution (HBSS), 0.001 ml test compound and 0.05 ml ^3H-LTB4 (4nM) were added to polypropylene tubes and mixed. The reaction was started by addition of a thoroughly mixed PMN cell suspension (1.6×10^6 cells), followed by incubation at 0° C. for 20 min. The reaction was terminated by the addition of ice-cold HBSS (2.5 ml). PMNs were harvested by vacuum filtration through Whatman GF/C glass fiber filters on a Brandel cell harvester (BRANDEL, M-24R). The filters were then washed 2 times to remove free ^3H-LTB4 with 2.5 ml of the ice-cold PBS (−) solution. The filters were transferred to each vial, and equilibrated after adding 8 ml ACS II cocktail (Amersham). The radioactivity was measured by liquid scintillation counter (Aloka, LSC-5100).
# Specific binding of ^3H-LTB4 to the LTB4 receptor was defined as total binding minus nonspecific binding. Nonspecific binding was the amount of ^3H-LTB4 binding in the presence of 1.5 μM LTB4 instead of the test compound. The inhibitory effect of test compound was calculated from the following equation.
# The percentage of inhibition (%)=100−(B1/B0×100)
# B1: Specific ^3H-LTB4 binding in presence of test compound
# B0: Specific ^3H-LTB4 binding in absence of test compound
# The compounds of the formula (IB), of the present invention have an antagonistic activity on LTB4. The results which are measured by method as hereinbefore described in Example 1(A), are shown the following Table 18.
# [1] = biological target: T2, trypsin (derived from bovine pancreas) (Bos taurus, UniProt P00760); test: Inhibitory activity on trypsin; assay type: biochemical
# T2 construct: a solution of 80 mU/ml trypsin (derived from bovine pancreas) (50 μl); from tissue; host or cells: bovine pancreas
# T2 sequence (P00760 24-246): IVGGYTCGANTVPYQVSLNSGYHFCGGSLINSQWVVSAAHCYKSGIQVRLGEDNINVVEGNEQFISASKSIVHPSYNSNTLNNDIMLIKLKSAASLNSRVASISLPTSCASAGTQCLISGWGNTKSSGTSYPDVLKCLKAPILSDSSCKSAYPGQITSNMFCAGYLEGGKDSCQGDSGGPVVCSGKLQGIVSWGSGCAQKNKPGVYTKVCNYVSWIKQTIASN
# Procedure: (2) Inhibitory Activity on Trypsin
# To a mixture of a 0.2 M HEPES.sodium hydroxide buffer solution (pH 8.0, 100 μl) and distilled water (640 μl), were added a test compound in various concentration or water (10 μl), and a solution of 80 mU/ml trypsin (derived from bovine pancreas) (50 μl) and then the mixture was preincubated for one minute at 30° C. To the solution thus obtained was added 2.5 mM BAPNA (200 μl) and the mixture was incubated at 30° C. The absorbance at 405 nm was measured. Percentage (%) of the absorbance in the presence of a test compound was calculated when the absorbance in the absence thereof was regarded as 100%, and therefrom IC50 value was calculated.
# HEPES represents 4-2-hydroxyethyl)-1-piperazineethanesulfonic acid, and
# BAPNA represents α-N-benzoyl-DL-arginine-p-nitroanilide hydrochloride.
# [2] = biological target: T3, PLA2 (derived from hog pancreas) (Sus scrofa, UniProt P00592); test: Inhibitory activity on PLA2; assay type: biochemical; conditions: hog pancreas PLA2, 10PY-PC substrate, fluorescence, pH7.5
# T3 construct: a solution of 10 mU/ml PLA2 (derived from hog pancreas) (50 μl); from tissue; host or cells: hog pancreas
# Procedure: (1) Inhibitory Activity on PLA2
# A reaction solution including 50 mM tris-HCl buffer (pH7.5, 874 μl; containing 100 mM sodium chloride, 1 mM EDTA), 1M calciumchloride (6 μl), 1% bovine serum albumin (10 μl) and 2.5 mM 10PY-PC (10 μl), was prepared. To the solution were added a test compound in various concentration or water (50 μl), and a solution of 10 mU/ml PLA2 (derived from hog pancreas) (50 μl). The appearance of fluorescence was measured (Ex=345 nm, Em=396 nm). Percentage (%) of the strength of fluorescence in the presence of a test compound was calculated when the strength of that in the absence thereof was regarded as 100%, and therefrom IC50 value was calculated.
# 10PY-PC represents 3′-palmitoyl-2-(1-pyrenedecanoyl)-L-α-phosphatidylcholine, […]
# [3] = formula (IA) compounds, Table 17
# [4] = formula (IB) compounds, Table 18
# [5] = bovine pancreas trypsin, BAPNA substrate, 30° C., pH 8.0, read-out: inhibitory activity on trypsin IC50
# T1 sequence (Q15722 whole entry): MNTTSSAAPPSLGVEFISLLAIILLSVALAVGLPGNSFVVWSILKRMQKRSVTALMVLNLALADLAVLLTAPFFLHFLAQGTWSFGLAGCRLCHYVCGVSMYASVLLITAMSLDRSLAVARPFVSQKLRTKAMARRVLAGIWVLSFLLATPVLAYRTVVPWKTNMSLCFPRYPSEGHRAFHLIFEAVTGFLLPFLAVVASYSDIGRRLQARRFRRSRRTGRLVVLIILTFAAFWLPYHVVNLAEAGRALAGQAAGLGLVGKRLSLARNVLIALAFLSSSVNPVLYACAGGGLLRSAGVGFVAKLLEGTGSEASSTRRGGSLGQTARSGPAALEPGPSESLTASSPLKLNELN
# T3 sequence (P00592 23-146): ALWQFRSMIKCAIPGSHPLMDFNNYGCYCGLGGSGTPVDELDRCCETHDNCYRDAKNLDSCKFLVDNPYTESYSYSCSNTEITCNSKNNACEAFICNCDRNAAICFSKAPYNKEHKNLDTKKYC
Compound,inhibition (LTB4 receptor; [3]) [%],inhibition (LTB4 receptor; [4]) [%],"pIC50 [1, 5]",pIC50 [2],pIC50 [1]
C=CCN(CC(=O)OCC)C(=O)COc1ccc(C(=O)Oc2ccc(C(=N)N)cc2)cc1 [Compound 2],–,79.7,6.72,–,–
CCOC(=O)CC[C@H](NC(=O)/C=C(\C)c1ccc(C(=O)Oc2ccc(C(=N)N)cc2)cc1)C(=O)OCC [Compound 4],63.7,–,–,–,–
CCOP(=O)(CCCc1ccccc1)Cc1ccc(C(=O)Oc2ccc(C(=N)N)cc2)cc1 (stereo not shown) [Compound 4],–,73.1,6.80,4.39,–
N=C(N)c1ccc(OC(=O)c2ccc(CN3CCC(c4ccccc4)CC3)cc2)cc1 [Compound 5],–,89.7,6.89,–,–
CCOC(=O)CN(Cc1ccccc1)Cc1ccc(C(=O)Oc2ccc(C(=N)N)cc2)cc1 [Compound 6],–,67.8,6.77,5.35,–
N=C(N)C1=Cc2ccc(OC(=O)c3ccc(C(=O)N(Cc4ccccc4)c4ccccc4)cc3)cc2CC1 [Example 2(a)],–,92,6.40,5.59,–
N=C(N)C1=Cc2ccc(OC(=O)c3ccc(C(=O)N(CC(=O)OCc4ccccc4)c4ccccc4)cc3)cc2CC1 [Example 2(b)],–,97.9,6.25,5.42,–
CCOC(=O)CN(C(=O)c1ccc(C(=O)Oc2ccc3c(c2)CCC(C(=N)N)=C3)cc1)c1ccccc1 [Example 2(c)],–,103,6.59,5.09,–
CCOC(=O)CN(C(=O)c1ccc(C(=O)Oc2ccc(/C=C/C(=N)N)cc2)cc1)c1ccccc1 [Example 2(d)],–,99.3,6.85,5.06,–
CCOC(=O)[C@H](COC(=O)c1ccccc1)NC(=O)/C(C)=C/c1ccc(C(=O)Oc2ccc(C(=N)N)cc2)cc1 [Example 2(e)],–,94.5,6.47,5.07,–
CCOC(=O)CC[C@H](NC(=O)c1ccc(/C=C/C(=O)Oc2ccc(C(=N)N)cc2)cc1)C(=O)OCC [Example 2(f)],–,91.8,7.00,4.15,–
COc1cc(C(=N)N)ccc1OC(=O)c1ccc(C(=O)N(CCCc2ccccc2)C(Cc2ccccc2)Cc2ccccc2)cc1 [Example 2(ff)],–,82.4,–,–,–
CCOC(=O)CC[C@H](NC(=O)c1ccc(/C=C(\C)C(=O)Oc2ccc(C(=N)N)cc2)cc1)C(=O)OCC [Example 2(g)],–,89.6,6.80,4.28,–
CCOC(=O)/C=C/CC(NC(=O)/C(C)=C/c1ccc(C(=O)Oc2ccc(C(=N)N)cc2)cc1)(C(=O)OCC)C(=O)OCC [Example 2(h)],–,85.4,6.82,4.96,–
CCOC(=O)CC[C@H](NC(=O)COc1ccc(C(=O)Oc2ccc(C(=N)N)cc2)cc1)C(=O)OCC [Example 2(j)],–,55.4,6.92,–,–
CCOC(=O)CC(NC(=O)/C(C)=C/c1ccc(C(=O)Oc2ccc(C(=N)N)cc2)cc1)(C(=O)OCC)C(=O)OCC [Example 2(k)],–,97.7,7.00,4.70,–
CCOC(=O)CC[C@H](NC(=O)/C=C/C=C/c1ccc(C(=O)Oc2ccc(C(=N)N)cc2)cc1)C(=O)OCC [Example 2(m)],–,89.2,6.77,4.74,–
CCOC(=O)CN(C(=O)/C(C)=C/c1ccc(C(=O)Oc2ccc(C(=N)N)cc2)cc1)[C@@H](CC(C)C)C(=O)OCC [Example 2(y)],–,85.5,–,–,–
CCOC(=O)CCN(CCC(C)C)C(=O)/C(C)=C/c1ccc(C(=O)Oc2ccc(C(=N)N)cc2)cc1 [Example 2(z)],–,92.8,–,–,–
CCOP(=O)(/C=C/c1ccc(C(=O)Oc2ccc(C(=N)N)cc2)cc1)OCC [Example 4(a)],–,52,–,–,6.85
N=C(N)c1ccc(OC(=O)c2ccc(Cn3ccnc3-c3ccccc3)cc2)cc1 [Example 5(a)],–,62.5,6.82,–,–
CCOC(=O)c1cc2ccccc2n1Cc1ccc(C(=O)Oc2ccc(C(=N)N)cc2)cc1 [Example 5(b)],–,90.2,–,–,–

# Second part, led by results:
inhibition (LTB4 receptor; [3]) [%],inhibition (LTB4 receptor; [4]) [%],"pIC50 [1, 5]",pIC50 [2],Compound,pIC50 [1]
91.5,–,–,–,C=CCN(CC(=O)OCC)C(=O)/C(C)=C/c1ccc(C(=O)Oc2ccc(C(=N)N)cc2)cc1 [Compound 1],–
96.5,–,–,–,C=CCN(CCCC(=O)OCC)C(=O)/C(C)=C/c1ccc(C(=O)Oc2ccc(C(=N)N)cc2)cc1 [Compound 14],–
87,–,–,–,CCOC(=O)CCN(CC(=O)OCC)C(=O)/C(C)=C/c1ccc(C(=O)Oc2ccc(C(=N)N)cc2)cc1 [Compound 18],–
83.5,–,–,–,C=CCN(CCCC(=O)O)C(=O)/C(C)=C/c1ccc(C(=O)Oc2ccc(C(=N)N)cc2)cc1 [Compound 20],–
90.8,–,–,–,C/C(=C\c1ccc(C(=O)Oc2ccc(C(=N)N)cc2)cc1)C(=O)N(CC(=O)O)Cc1ccccc1 [Compound 21],–
61.2,–,–,–,COCCCN(C(=O)/C(C)=C/c1ccc(C(=O)Oc2ccc(C(=N)N)cc2)cc1)C(C(=O)O)C(=O)O [Compound 24],–
–,94.4,–,–,C/C(=C\c1ccc(C(=O)Oc2ccc(C(=N)N)cc2)cc1)C(=O)N(CCC(=O)O)C1CCCCC1 [Example 2(aa)],–
–,87.3,–,–,CCOC(=O)CN(CCOC)C(=O)/C(C)=C/c1ccc(C(=O)Oc2ccc(C(=N)N)cc2)cc1 [Example 2(bb)],–
–,76.7,–,–,C/C(=C\c1ccc(C(=O)Oc2ccc(C(=N)N)cc2)cc1)C(=O)N(CC(=O)O)CC1CCCO1 (stereo not shown) [Example 2(cc)],–
–,50.8,–,–,C/C(=C\c1ccc(C(=O)Oc2ccc(C(=N)N)cc2)cc1)C(=O)N(CC(=O)O)CC1CCNCC1 [Example 2(dd)],–
–,65.3,–,–,C=CCN(CC(=O)O)C(=O)/C(C)=C/c1ccc(C(=O)Nc2ccc(C(=N)N)cc2)cc1 [Example 2(ee)],–
–,69.6,6.85,4.23,C=CCN(CC(=O)OCC)C(=O)c1ccc(C(=O)Oc2ccc(/C=C/C(=N)N)cc2)cc1 [Example 2(i)],–
–,81,6.92,4.03,C=CCN(CC(=O)OCC)C(=O)c1ccc(/C=C(\C)C(=O)Oc2ccc(C(=N)N)cc2)cc1 [Example 2(l)],–
–,82.8,6.80,5.00,C=CCN(CC(=O)OCC)C(=O)/C=C/C=C/c1ccc(C(=O)Oc2ccc(C(=N)N)cc2)cc1 [Example 2(n)],–
–,51.5,–,–,C=CCN(CC(=O)NCCN(C)C)C(=O)/C(C)=C/c1ccc(C(=O)Oc2ccc(C(=N)N)cc2)cc1 [Example 2(t)],–
–,67.6,–,–,C=CCN(CC(=O)OCCN(C)C)C(=O)/C(C)=C/c1ccc(C(=O)Oc2ccc(C(=N)N)cc2)cc1 [Example 2(u)],–
–,92,–,–,C=CCN(CC(=O)Oc1ccc(C(=N)N)cc1)C(=O)/C(C)=C/c1ccc(C(=O)Oc2ccc(C(=N)N)cc2)cc1 [Example 2(v)],–
–,76.7,–,–,C=CCN(CC(=O)NC(C(=O)OCC)C(=O)OCC)C(=O)/C(C)=C/c1ccc(C(=O)Oc2ccc(C(=N)N)cc2)cc1 [Example 2(w)],–
–,94.1,–,–,C=CCN(CC=C)C(=O)CN(CC=C)C(=O)/C(C)=C/c1ccc(C(=O)Oc2ccc(C(=N)N)cc2)cc1 [Example 2(x)],–
